Peptide text beside a SMILES is read from it.
Details: 37° C., 2 hours
Procedure: 10 μL of the resultant dipeptide solution was mixed with 4 μL of blood plasma or 4 μL of water, and was incubated at 37° C. for 2 hours. The mixture solution after incubation was applied to a TLC plate (manufactured by Merck Ltd.), and developed with a solution containing butanol (Kishida Chemical Co., Ltd.), acetic acid (Kishida Chemical Co., Ltd.) and water in a ratio of 2:1:1. A 1% ninhydrin solution was sprayed onto the mixture, which was then incubated at 80° C. for 5 minutes. Incidentally, the 1% ninhydrin solution was prepared by dissolving ninhydrin (Wako Pure Chemical Industries, Ltd.) in ethanol (Kishida Chemical Co., Ltd.).

TLC spots when mixed with water, single spot alone:
CC[C@H](C)[C@H](NC(=O)[C@H](C)N)C(=O)O [Alanyl-Isoleucine, alanyl-isoleucine] (H-Ala-Ile-OH)
CC(C)C[C@H](NC(=O)[C@H](C)N)C(=O)O [Alanyl-Leucine, alanyl-leucine] (H-Ala-Leu-OH)
CC(C)[C@H](NC(=O)[C@H](C)N)C(=O)O [Alanyl-Valine, alanyl-valine] (H-Ala-Val-OH)

Source: patent US7846902B2, “Dipeptide-comprising composition for oral administration” (Kyowa Hakko Bio Co., Ltd., priority 2005, dated 2010)
